Several values for one entry are separate records, joined by “and”; a condition that tells them apart may be missing. Equal entries are not always repeated.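 Interpolation was linear, between the two tested concentrations surrounding the appropriate level; five concentrations were tested over 48 hours in 96-well plates. GI50: concentration for 50% inhibition of growth. Definition used: TGI = concentration required for complete inhibition of growth.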
How the values were obtained:
Test in all cases: NCI-60 cell line screen, 48 h
786-0 renal = system: 786-0 renal
HCT-15 colon = system: HCT-15 colon
SN12C renal = system: SN12C renal
SW-620 colon = system: SW-620 colon
HCC-2998 colon = system: HCC-2998 colon
RPMI-8226 leukemia = system: RPMI-8226 leukemia
MDA-MB-231 breast = system: MDA-MB-231 breast
KM12 colon = system: KM12 colon
NCI-H226 lung = system: NCI-H226 lung
SNB-75 CNS = system: SNB-75 CNS

| SMILES | TGI (786-0 renal) [µM] | TGI (HCT-15 colon) | TGI (SN12C renal) | TGI (SW-620 colon) [µM] | TGI (HCC-2998 colon) | TGI (RPMI-8226 leukemia) | GI50 (MDA-MB-231 breast) [µM] | TGI (MDA-MB-231 breast) [µM] | TGI (KM12 colon) [µM] | TGI (NCI-H226 lung) [µM] | TGI (SNB-75 CNS) [µM] | GI50 (786-0 renal) [nM] | GI50 (KM12 colon) [µM] | GI50 (SN12C renal) [µM] | GI50 (NCI-H226 lung) [µM] | GI50 (HCC-2998 colon) [µM] | GI50 (SNB-75 CNS) [nM] | GI50 (RPMI-8226 leukemia) [µM] | GI50 (HCT-15 colon) [µM] | GI50 (SW-620 colon) [µM] |
| --- | --- | --- | --- | --- | --- | --- | --- | --- | --- | --- | --- | --- | --- | --- | --- | --- | --- | --- | --- | --- |
| COc1cc2c(c(OC)c1OC)-c1ccc(OC)c(=O)cc1[C@@H](NC(C)=O)CC2 | > 100 | > 100 µM and 25.8 µM and 50.4 µM | > 100 µM and > 93.4 µM and 131 µM | > 394 | 1.01 µM and 7.43 µM | > 100 µM and 217 µM | 7.13 | > 100 |  |  |  |  |  |  |  |  |  |  |  |  |
| O=[N+]([O-])c1cc([N+](=O)[O-])c(/C=C/c2ccc(Cl)c(Cl)c2)cc1/C=C/c1ccc(Cl)c(Cl)c1 | 60.3 | 58.9 µM | 43.1 µM | 88.6 | > 100 µM | 50.3 µM |  |  | 51.1 | 66.3 | > 100 |  |  |  |  |  |  |  |  |  |
| CC[C@@]1(O)C(=O)OCc2c1cc1n(c2=O)Cc2cc3cccc([N+](=O)[O-])c3nc2-1 | 1.29 |  | 5.01 µM |  | 31.8 µM | 64.5 µM |  |  | 35.6 | 6.49 | 7.85 | 300 | 4.82 | 0.382 | 0.552 | 4.92 | 879 | 1.71 |  |  |
| O=C1[C@@H]2C(c3ccccc3[N+](=O)[O-])=[N+](c3ccccc3)O[C@@H]2C(=O)N1c1ccc(Cc2ccc(N3C(=O)[C@H]4C(c5ccccc5[N+](=O)[O-])=[N+](c5ccccc5)O[C@H]4C3=O)cc2)cc1 | > 100 | > 100 µM | > 100 µM | > 100 | > 100 µM | > 100 µM |  |  | > 100 | > 100 | > 100 |  |  |  |  |  |  |  |  |  |
| C=C1C(=O)O[C@H]2[C@H]1CC/C(C=Nc1c(N)cc(C(F)(F)F)cc1C(F)(F)F)=C\CC[C@@]1(C)O[C@@H]21 | 4.11 | 3.73 µM |  | 2.95 | 3.3 µM | 3.26 µM | 1.38 | 3.79 | 4.74 | 4.11 | 15.4 | 2040 | 1.99 |  | 1.43 | 1.69 | 1780 | 0.441 | 1.05 | 1.23 |
| COc1ccc2cc(C(=O)/C=C/c3ccc(N(C)C)cc3)ccc2c1 | > 100 | > 100 µM | > 100 µM | > 100 |  | > 100 µM | 40.2 | > 100 | > 100 |  | > 100 | > 100000 | > 100 | > 100 |  |  | > 100000 | > 100 | 57.3 | 87.3 |
| CCOC(=O)NC/C=C/COC1CCCCO1 (centres undefined) | > 100 | > 100 µM | > 100 µM | > 100 | > 100 µM | > 100 µM |  |  | > 100 | > 100 | > 100 |  |  |  |  |  |  |  |  |  |
| CCCc1cc(=O)n2c(C(=O)Nc3cccc(C(=O)OCC)c3)c(C(=O)Nc3ccc(F)cc3)sc2n1 | 5.25 | > 140 µM |  | > 140 | > 140 µM | > 140 µM | 1.6 | 7.2 | > 140 | 27.7 | 17.5 | 1430 | 42.5 |  | 5.83 | > 140 | 3540 | 6.2 | 125 | 12 |
| N#CCCCCCOCCOCCOCCOCCOCCCCCC#N | > 100 | > 100 µM | > 100 µM | > 100 | > 100 µM |  |  |  | > 100 | > 100 | > 100 |  |  |  |  |  |  |  |  |  |
| Cc1nn2c(nc1=O)sc1ccc3ccccc3c12 | > 100 | > 100 µM | > 100 µM | > 100 | > 100 µM |  |  |  | > 100 | > 100 | > 100 |  |  |  |  |  |  |  |  |  |
| CCCCCCCCCCCC(=O)N1CCN(C(C)=O)CC1 | 31.1 | > 100 µM | 37.3 µM | 46.6 | 28.1 µM | 35.7 µM | 21 | 38.2 | 56.5 | 77.3 |  | 16900 | 25 | 18.8 | 27.9 | 14.8 |  | 16.8 | 40.2 | 25.2 |
| CCCCCCn1c(-c2ccc(C(=O)O/N=C(\N)c3ccc4ccccc4c3)cc2)nc(-c2ccccc2)c1-c1ccccc1 | > 100 | > 100 µM | > 100 µM | > 100 | > 100 µM |  | 17.8 | > 100 | > 100 | > 100 | 20.1 | 7630 | > 100 | > 100 | 27.3 | > 100 | 2180 |  | 7.53 | > 100 |
| O=c1[nH]c(=O)c2cc3cc(C4CC(O)C(CO)O4)ccc3cc2[nH]1 (centres undefined) | > 100 | > 100 µM | > 100 µM | > 100 | > 100 µM | > 100 µM | 65.7 | > 100 |  | > 100 | > 100 | > 100000 |  | > 100 | > 100 | > 100 | 34500 | > 100 | > 100 | > 100 |
| CCCNCC(=O)O[C@]1(CC)C(=O)OCc2c1cc1n(c2=O)Cc2cc3ccccc3nc2-1 | 0.117 |  | 0.215 µM |  | 4.36 µM | 0.88 µM |  |  | 8.05 | 0.331 | 0.537 |  |  |  |  |  |  |  |  |  |
| COc1cc(-c2oc3c(OC)cc(OC)c(O)c3c(=O)c2OC)cc(OC)c1OC | > 100 |  | > 100 µM | > 100 | > 100 µM | > 100 µM |  | > 100 | > 100 | > 100 | 5.06 |  |  |  |  |  |  |  |  |  |
| Cc1ccc(NC(=O)c2cc3ccccc3c(N=Nc3cc(S(=O)(=O)O)ccc3O)c2O)c(C)c1 | > 100 | > 100 µM | > 100 µM | > 100 |  | > 100 µM |  | > 100 | 53.9 | > 100 | > 100 |  |  |  |  |  |  |  |  |  |
| N#C[Se]CCN1C(=O)C2C(C1=O)[C@H]1C=C[C@@H]2S1 (some centres undefined) | 3.68 | 5.77 µM | 4.07 µM | 8.19 | 5.44 µM | 4.84 µM | 2.24 | 5.2 | 5.38 |  | 3.85 | 1970 | 2.32 | 1.92 |  | 2.18 | 1390 | 2.04 | 2.2 | 2.87 |
